According to ChEMBL document CHEMBL2074502, “Effect of furanocoumarin derivatives in grapefruit juice on the uptake of vinblastine by Caco-2 cells and on the activity of cytochrome P450 3A4” (Br J Pharmacol, 2000):

Molecular target: ATP-dependent translocase ABCB1 (Homo sapiens, UniProt P08183)
Test: TP_TRANSPORTER: increase uptake (Vinblastine: 0.01 uM) in Caco-2 cells
Assay type: functional, cell-based

Chain of ATP-dependent translocase ABCB1 (P08183 whole entry): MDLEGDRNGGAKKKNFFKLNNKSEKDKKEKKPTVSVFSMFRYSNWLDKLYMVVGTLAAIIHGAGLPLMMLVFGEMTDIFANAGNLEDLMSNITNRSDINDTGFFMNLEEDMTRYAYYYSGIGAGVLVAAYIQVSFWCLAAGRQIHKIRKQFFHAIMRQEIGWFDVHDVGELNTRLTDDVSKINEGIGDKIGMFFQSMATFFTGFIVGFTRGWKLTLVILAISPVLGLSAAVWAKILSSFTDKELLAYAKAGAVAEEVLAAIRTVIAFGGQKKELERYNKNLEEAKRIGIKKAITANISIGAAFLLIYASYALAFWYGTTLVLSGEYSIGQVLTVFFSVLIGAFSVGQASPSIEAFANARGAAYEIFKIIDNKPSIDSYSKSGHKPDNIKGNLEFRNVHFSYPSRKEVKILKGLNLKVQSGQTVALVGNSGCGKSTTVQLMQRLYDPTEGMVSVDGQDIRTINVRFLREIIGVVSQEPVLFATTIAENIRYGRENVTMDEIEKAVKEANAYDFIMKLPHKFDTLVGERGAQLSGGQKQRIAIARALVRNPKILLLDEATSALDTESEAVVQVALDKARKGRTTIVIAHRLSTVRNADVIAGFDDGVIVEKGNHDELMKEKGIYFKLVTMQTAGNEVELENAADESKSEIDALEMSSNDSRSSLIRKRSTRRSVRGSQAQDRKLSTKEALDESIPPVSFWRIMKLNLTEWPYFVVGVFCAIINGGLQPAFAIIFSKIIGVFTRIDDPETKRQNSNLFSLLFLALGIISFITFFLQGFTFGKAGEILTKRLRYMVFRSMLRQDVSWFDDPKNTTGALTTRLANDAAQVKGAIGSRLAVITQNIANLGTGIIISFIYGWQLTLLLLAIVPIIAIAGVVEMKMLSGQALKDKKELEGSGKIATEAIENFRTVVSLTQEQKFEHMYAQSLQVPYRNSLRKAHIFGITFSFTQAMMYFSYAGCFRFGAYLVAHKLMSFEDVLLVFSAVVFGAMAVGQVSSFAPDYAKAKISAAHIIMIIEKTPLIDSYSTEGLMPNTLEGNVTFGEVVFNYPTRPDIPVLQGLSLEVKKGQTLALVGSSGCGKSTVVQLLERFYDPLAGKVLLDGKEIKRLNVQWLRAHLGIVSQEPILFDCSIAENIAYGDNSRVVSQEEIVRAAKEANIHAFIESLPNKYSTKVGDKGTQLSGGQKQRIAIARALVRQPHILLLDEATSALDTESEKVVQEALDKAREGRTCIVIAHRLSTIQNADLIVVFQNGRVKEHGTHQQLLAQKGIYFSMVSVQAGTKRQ

Row | SMILES | EC200 [µM]
1 | C/C(=C\COc1c2ccoc2cc2oc(=O)ccc12)CCC(OC(C)(C)C(O)CC/C(C)=C/COc1c2ccoc2cc2oc(=O)ccc12)C(C)(C)O (stereo not given) [FC726] | 0.035
2 | COc1c2ccoc2cc2oc(=O)ccc12 [BERGAPTEN] | 0.05
3 | O=c1ccc2c(O)c3ccoc3cc2o1 [BERGAPTOL] | 0.3

Further lines, results first:

Row | EC200 [µM] | SMILES
4 | 0.035 | CC(C)=CCC/C(C)=C/COc1c2ccoc2cc2oc(=O)ccc12 [BERGAMOTTIN]
5 | 0.04 | C/C(=C\COc1c2ccoc2cc2oc(=O)ccc12)CC[C@@H](O)C(C)(C)O
